Assay [1] deals with T1, Ks-Amt5 (ammonium sensor histidine kinase, HK domain) (Candidatus Kuenenia stuttgartensis, UniProt Q1Q357).
T1 construct: gene amtb; Ks-Amt5^426–679 (soluble HK domain)
The experiment in a line: SAXS, compaction of the HK domain on nucleotide addition. Type of assay: binding.

Assay [2] concerns the target T1, Ks-Amt5 (ammonium sensor histidine kinase, HK domain). The experiment in a line: isothermal titration calorimetry. Type of assay: binding.
The target in assay [3] is T2, Ks-Amt5 (ammonium sensor/transducer) (Candidatus Kuenenia stuttgartensis, UniProt Q1Q357). The assay is described as follows: biochemical. Details: gene amtb.
The target in assay [4] is T2, Ks-Amt5 (ammonium sensor/transducer). The assay is described as follows: microscale thermophoresis (weak; no electrogenic response). Type of assay: binding. Set-up: gene amtb; Ks-Amt5.
Assay [5] has as its target T1, Ks-Amt5 (ammonium sensor histidine kinase, HK domain). The assay is described as follows: isothermal titration calorimetry (also SAXS and […] autophosphorylation). It counts as binding.
Assay [6] deals with Ks-Amt5 (kust_3690), full-length ammonium sensor histidine kinase (Candidatus Kuenenia stuttgartiensis). The assay is described as follows: SAXS; full-length Ks-Amt5 in 0.09 % CYMAL-5; batch or SEC-SAXS (Superdex 200 10/300); buffer C with 5 % glycerol; 20 °C; molecular weight from forward scattering I(0).
The target is the same in assay [7]. The experiment in a line: crystal structure; full-length Ks-Amt5; space group P6_(3); 1.98 Å; only the Amt domain (residues 1-405) modelled, HK domain disordered.
For assay [8] the target is unchanged. The assay is described as follows: SEC; Superdex 200 26/60; buffer C (20 mM HEPES/NaOH pH 7.5 or 20 mM Tris/HCl pH 8.0, 100 mM NaCl) with 5-10 % glycerol and detergent; 4 °C; self-association of the detergent-solubilized protein.

Consider six compounds from paper PMC5764959, “Signaling ammonium across membranes through an ammonium sensor histidine kinase” (Nature Communications, 2018).

T1 sequence (Q1Q357 entry or part of it): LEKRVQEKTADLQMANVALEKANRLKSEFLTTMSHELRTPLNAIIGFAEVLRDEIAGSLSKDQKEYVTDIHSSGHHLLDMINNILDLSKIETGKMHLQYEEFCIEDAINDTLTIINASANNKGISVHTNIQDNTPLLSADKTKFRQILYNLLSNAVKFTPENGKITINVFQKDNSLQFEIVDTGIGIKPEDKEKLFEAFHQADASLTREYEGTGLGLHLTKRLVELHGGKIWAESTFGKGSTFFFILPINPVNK
T2 sequence (Q1Q357 1-679): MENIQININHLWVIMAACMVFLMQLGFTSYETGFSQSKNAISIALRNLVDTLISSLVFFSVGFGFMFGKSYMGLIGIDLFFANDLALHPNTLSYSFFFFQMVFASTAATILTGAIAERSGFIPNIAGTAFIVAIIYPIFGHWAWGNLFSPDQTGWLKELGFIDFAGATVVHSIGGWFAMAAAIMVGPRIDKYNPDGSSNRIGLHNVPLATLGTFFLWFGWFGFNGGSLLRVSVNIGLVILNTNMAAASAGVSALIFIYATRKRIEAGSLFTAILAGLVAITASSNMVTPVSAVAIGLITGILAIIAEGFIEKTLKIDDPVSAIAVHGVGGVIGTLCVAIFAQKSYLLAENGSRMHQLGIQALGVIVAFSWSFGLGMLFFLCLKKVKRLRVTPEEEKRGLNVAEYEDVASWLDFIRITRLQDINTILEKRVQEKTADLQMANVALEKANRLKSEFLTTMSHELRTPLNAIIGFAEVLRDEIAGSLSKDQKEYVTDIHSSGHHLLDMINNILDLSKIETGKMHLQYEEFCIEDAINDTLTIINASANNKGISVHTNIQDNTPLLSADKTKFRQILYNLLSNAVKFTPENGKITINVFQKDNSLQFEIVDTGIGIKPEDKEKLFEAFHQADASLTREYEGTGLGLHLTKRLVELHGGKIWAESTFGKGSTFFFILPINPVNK

`Nc1ncnc2c1ncn2[C@@H]1O[C@H](COP(=O)(O)OP(=O)(O)CP(=O)(O)O)[C@@H](O)[C@H]1O` [APPCP]: the “SAXS, compaction of the HK domain on nucleotide addition” value in assay [1] is “change toward a more compact and less-flexible structure when either APPCP or ATP are added to the HK domain”.
The compound `Nc1ncnc2c1ncn2[C@@H]1O[C@H](CO[P@](=O)(O)O[P@](=O)(O)O[P@@](=O)(O)S)[C@@H](O)[C@H]1O` [ATPγS] registered a Kd in assay [2] of 36.74 ± 0.05 µM.
In assay [3], `N` [NH4^+] returned a Kd of 41 ± 24 µM.
The compound `CN` [MA, methylammonium] had an equilibrium dissociation constant (Kd) in assay [4] of 2350 ± 440 µM.
Compound `Nc1ncnc2c1ncn2[C@@H]1O[C@H](COP(=O)(O)OP(=O)(O)OP(=O)(O)O)[C@@H](O)[C@H]1O` [ATP] displayed a Kd in assay [5] of 11.16 ± 0.03 µM.
Consider “Ks-Amt5 (kust_3690), full-length ammonium sensor histidine kinase (natural protein)”, for which the stoichiometry N in assay [6], in assay [7] and in assay [8] was 3 in each case.
